Earlier results, collected in article PMC9516332 (Frontiers in Oncology, 2022).
Read-outs that look alike come from different tables or passages of the source.

What was measured:
Settings in all cases: cited from earlier work
[1] = target: T1, panel of 255 wild-type kinases (Homo sapiens, UniProt P21709)
T1 sequence (P21709 26-976): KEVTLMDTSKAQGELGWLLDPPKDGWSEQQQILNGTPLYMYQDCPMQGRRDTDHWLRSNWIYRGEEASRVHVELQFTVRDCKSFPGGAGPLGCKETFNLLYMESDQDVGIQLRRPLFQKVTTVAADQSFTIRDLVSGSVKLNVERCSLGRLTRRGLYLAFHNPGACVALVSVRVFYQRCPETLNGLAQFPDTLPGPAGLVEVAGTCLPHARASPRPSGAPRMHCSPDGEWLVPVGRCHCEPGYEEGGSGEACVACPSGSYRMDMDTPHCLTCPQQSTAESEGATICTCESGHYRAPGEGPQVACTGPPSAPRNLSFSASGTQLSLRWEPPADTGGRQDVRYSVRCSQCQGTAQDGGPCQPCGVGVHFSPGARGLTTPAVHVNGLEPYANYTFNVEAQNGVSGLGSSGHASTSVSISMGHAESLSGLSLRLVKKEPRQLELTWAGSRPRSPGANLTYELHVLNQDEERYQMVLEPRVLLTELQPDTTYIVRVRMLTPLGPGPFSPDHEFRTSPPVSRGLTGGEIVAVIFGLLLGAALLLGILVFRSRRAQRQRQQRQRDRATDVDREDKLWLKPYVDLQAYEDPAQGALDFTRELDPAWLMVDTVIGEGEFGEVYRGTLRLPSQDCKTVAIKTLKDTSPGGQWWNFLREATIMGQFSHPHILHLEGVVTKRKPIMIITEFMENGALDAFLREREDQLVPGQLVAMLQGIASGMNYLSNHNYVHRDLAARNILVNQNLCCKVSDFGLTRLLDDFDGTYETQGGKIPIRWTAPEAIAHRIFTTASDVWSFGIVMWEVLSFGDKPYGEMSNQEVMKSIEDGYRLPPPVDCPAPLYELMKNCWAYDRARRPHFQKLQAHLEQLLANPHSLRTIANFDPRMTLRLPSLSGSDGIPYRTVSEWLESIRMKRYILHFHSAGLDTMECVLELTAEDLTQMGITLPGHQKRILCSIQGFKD

[2] = target: panel of 255 wild-type kinases (Homo sapiens, UniProt P06213)
[3] = target: panel of 255 wild-type kinases (Homo sapiens, UniProt P45983)
[4] = target: T2, panel of 255 wild-type kinases (Homo sapiens, UniProt P29323)
T2 sequence (P29323 19-1055): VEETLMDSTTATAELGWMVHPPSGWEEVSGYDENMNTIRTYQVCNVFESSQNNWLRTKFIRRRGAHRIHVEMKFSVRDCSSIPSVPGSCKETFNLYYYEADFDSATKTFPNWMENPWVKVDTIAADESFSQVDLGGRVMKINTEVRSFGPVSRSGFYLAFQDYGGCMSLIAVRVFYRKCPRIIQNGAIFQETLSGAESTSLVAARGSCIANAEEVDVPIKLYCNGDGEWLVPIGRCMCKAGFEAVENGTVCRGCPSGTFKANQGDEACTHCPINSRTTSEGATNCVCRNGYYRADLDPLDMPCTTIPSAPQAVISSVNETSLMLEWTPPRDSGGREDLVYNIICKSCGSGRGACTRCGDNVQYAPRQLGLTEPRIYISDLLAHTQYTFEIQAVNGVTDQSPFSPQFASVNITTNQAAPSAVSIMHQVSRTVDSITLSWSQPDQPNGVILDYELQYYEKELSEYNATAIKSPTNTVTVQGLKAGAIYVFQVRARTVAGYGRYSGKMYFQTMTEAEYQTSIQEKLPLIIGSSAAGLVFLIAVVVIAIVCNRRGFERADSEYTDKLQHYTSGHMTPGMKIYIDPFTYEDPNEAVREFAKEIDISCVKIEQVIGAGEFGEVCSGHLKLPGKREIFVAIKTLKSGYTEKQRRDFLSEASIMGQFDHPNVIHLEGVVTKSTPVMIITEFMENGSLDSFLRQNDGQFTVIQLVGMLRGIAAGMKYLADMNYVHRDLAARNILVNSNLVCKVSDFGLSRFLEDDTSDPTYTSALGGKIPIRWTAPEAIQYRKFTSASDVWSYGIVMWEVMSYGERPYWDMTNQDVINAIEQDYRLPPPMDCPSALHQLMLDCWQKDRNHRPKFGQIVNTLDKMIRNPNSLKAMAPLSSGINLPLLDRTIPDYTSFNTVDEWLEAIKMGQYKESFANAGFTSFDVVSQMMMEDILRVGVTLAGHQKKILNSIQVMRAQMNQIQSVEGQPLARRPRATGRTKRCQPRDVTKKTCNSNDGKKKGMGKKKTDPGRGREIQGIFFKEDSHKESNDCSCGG

[5] = target: panel of 255 wild-type kinases (Homo sapiens, UniProt P42684)
[6] = kinase EPHA1, 1 µmol/L single concentration, ref DOI: 10.1371/journal.pone.0092146
[7] = kinase INSR, 1 µmol/L single concentration, ref DOI: 10.1371/journal.pone.0092146
[8] = kinase EPHB2, 1 µmol/L single concentration, ref DOI: 10.1371/journal.pone.0092146
[9] = ARG kinase assay, 1 µmol/L single concentration, ref DOI: 10.1371/journal.pone.0092146
[10] = kinase JNK1, 1 µmol/L single concentration, ref DOI: 10.1371/journal.pone.0092146
[11] = kinase EPHA1, 1 µmol/L single concentration, ref DOI: 10.1158/1535-7163.MCT-18-0877
[12] = kinase INSR, 1 µmol/L single concentration, ref DOI: 10.1158/1535-7163.MCT-18-0877
[13] = kinase JNK1, 1 µmol/L single concentration, ref DOI: 10.1158/1535-7163.MCT-18-0877
[14] = kinase EPHB2, 1 µmol/L single concentration, ref DOI: 10.1158/1535-7163.MCT-18-0877
[15] = ARG kinase assay, 1 µmol/L single concentration, ref DOI: 10.1158/1535-7163.MCT-18-0877

SMILES	%-inhibition at 1 µmol/L, EPHA1 [1, 6]	%-inhibition at 1 µmol/L, INSR [2, 7]	%-inhibition at 1 µmol/L, EPHB2 [4, 8]	%-inhibition ARG [5, 9]	%-inhibition at 1 µmol/L, EPHA1 [1, 11]	%-inhibition at 1 µmol/L, INSR [2, 12]	%-inhibition at 1 µmol/L, JNK1 [3, 13]	%-inhibition at 1 µmol/L, EPHB2 [4, 14]	%-inhibition ARG [5, 15]	also measured
CCCS(=O)(=O)Nc1ccc(F)c(C(=O)c2c[nH]c3ncc(-c4ccc(Cl)cc4)cc23)c1F [vemurafenib]	-9%	17%	-2.11%	7%						%-inhibition at 1 µmol/L, JNK1 [3]: 1.47%
CC(=O)Nc1cccc(-n2c(=O)n(C3CC3)c(=O)c3c(Nc4ccc(I)cc4F)n(C)c(=O)c(C)c32)c1 [trametinib]	-1.61%	-30%	-8%	-4%						%-inhibition at 1 µmol/L, JNK1 [3, 10]: -4.68%
CCc1cc2c(cc1N1CCC(N3CCOCC3)CC1)C(C)(C)c1[nH]c3cc(C#N)ccc3c1C2=O [alectinib]					5.62%	83%	3.24%	27%	1%	
CC(C)(C)c1nc(-c2cccc(NS(=O)(=O)c3c(F)cccc3F)c2F)c(-c2ccnc(N)n2)s1 [dabrafenib]	44%	7.51%	-3.38%	54%						%-inhibition at 1 µmol/L, JNK1 [3, 10]: -1.12%
CC#CC(=O)N1CCC[C@H]1c1nc(-c2ccc(C(=O)Nc3ccccn3)cc2)c2c(N)nccn12 [acalabrutinib]					-0.591%	-4.67%	-0.882%	-0.111%	3.53%	
O=C(c1ccc(F)c(F)c1Nc1ccc(I)cc1F)N1CC(O)([C@@H]2CCCCN2)C1 [cobimetinib]					0.613%	2.48%	-3%	1.53%	-1.54%	
C=CC(=O)Nc1cc(Nc2nccc(-c3cn(C)c4ccccc34)n2)c(OC)cc1N(C)CCN(C)C [osimertinib]					13%	86%	-2.12%	2.8%	5.35%	
Cc1cc(Nc2ncc(Cl)c(Nc3ccccc3S(=O)(=O)C(C)C)n2)c(OC(C)C)cc1C1CCNCC1 [ceritinib]					45%	102%	9%	15%	-1.08%	
CO[C@@H]1[C@H](N(C)C(=O)c2ccccc2)C[C@H]2O[C@]1(C)n1c3ccccc3c3c4c(c5c6ccccc6n2c5c31)C(=O)NC4 [midostaurin]					9%	35%	9%	4.5%	25%	
COc1cc(N2CCC(N3CCN(C)CC3)CC2)ccc1Nc1ncc(Cl)c(Nc2ccccc2P(C)(C)=O)n1 [brigatinib]										%-inhibition at 1 µmol/L, EPHA1 [1]: 61%; %-inhibition at 1 µmol/L, INSR [2]: 101%; %-inhibition at 1 µmol/L, JNK1 [3]: 40%; %-inhibition at 1 µmol/L, EPHB2 [4]: 10%; %-inhibition ARG [5]: 55%
C=CC(=O)N1CCC[C@@H](n2nc(-c3ccc(Oc4ccccc4)cc3)c3c(N)ncnc32)C1 [ibrutinib]					50%	9.51%	-2.33%	28%	7%	
C[C@@H](Oc1cc(-c2cnn(C3CCNCC3)c2)cnc1N)c1c(Cl)ccc(F)c1Cl [crizotinib]	97%	84%	57%	80%						%-inhibition at 1 µmol/L, JNK1 [3, 10]: 0.431%
